Assay results from patent US4876277A, “Antimicrobial/antifungal compositions” (Plant Cell Research Institute, Inc., priority 1987, dated 1989).
In brackets after ≈: the same amount, converted by molar mass. Like-named read-outs stand apart in the source and are kept apart here.

What was measured:
Erysiphe graminis = assay: in vivo fungicide screen: wheat powdery mildew (WPM); conditions: for % compared to control, WPM: 100 ppm, foliar spray before infection
fish = conditions: in vivo; cited from earlier work
apples = conditions: in vivo; cited from earlier work
Rhizobium japonicum = assay: ED50 on bacteria, liquid nutrient medium: Rhizobium japonicum; assay type: cell-based; conditions: Bradyrhizobium japonicum, 48 h, Example 10, two days, read-out: ED50 concentration, RJ
green peach aphid = assay: insecticide activity: green peach aphid; assay type: in vivo; conditions: 150 to 600 ppm
green foxtails = assay: herbicide screening: green foxtails; conditions: in vivo
From the text: (§1) As noted above the compounds are ineffective as herbicides against one or more of the following weeds: average dicots, cocklebur, morning glory, pigweed, smartweed, velvet leaf, average monocots, barnyard grass, green foxtail, johnson grass, yellow nutsedge and the wild oat in both pre-emergent and post-emergent screening tests, at application rates of 2 lbs/acre for Compound 4, and 4 lbs/acre for Compound 5.

average monocots = assay: herbicide screening: average monocots; conditions: in vivo
From the text: as §1

weeds = assay: pre-emergent and post-emergent herbicide screening tests; assay type: in vivo
From the text: as §1

[1] = test system: Pseudoperonospora cubensis; assay: in vivo fungicide screen: cucumber downy mildew (CDM); conditions: for % compared to control, CDM: 100 ppm, foliar spray before infection
velvet leaf = assay: herbicide screening: velvet leaf; conditions: in vivo
From the text: as §1

Phytophtora infestans = assay type: in vivo
signal grass = assay: herbicide screening: signal grass; conditions: in vivo
[2] = test system: haploid lab strain from Yeast I; assay: ED50 on yeast, liquid nutrient medium: Yeast II; assay type: cell-based; conditions: Saccharomyces cerevisiae, 48 h, read-out: ED50 concentration, Yeast-II
Alternaria chrysanthemi = assay: ED50 on fungi, mycelial growth on V-8 juice agar: Alternaria chrysanthemi; assay type: cell-based; conditions: Example 6, 72 hrs, read-out: ED50 concentration, AC
Piricularia oryzae = assay type: in vivo
[3] = test system: southern root knot nematode; assay: insecticide activity: southern root knot nematode; assay type: in vivo; conditions: 150 to 600 ppm
Cladosporium herbarum = assay: ED50 on fungi, mycelial growth on V-8 juice agar: Cladosporium herbarum; assay type: cell-based; conditions: Example 2, 72 hrs, read-out: ED50 concentration, CH
Xanthomonas campestris = assay: activity on Xanthomonas campestris; assay type: cell-based
Pellicularia filamentosa = assay: in vivo fungicide screen: rice sheath blight (RSB); conditions: for % compared to control, RSB: 100 ppm, foliar spray before infection
southern armyworm = assay: insecticide activity: southern armyworm; assay type: in vivo; conditions: 150 to 600 ppm
[4] = test system: Saccharomyces cerevisiae from Universal Foods; assay: ED50 on yeast, liquid nutrient medium: Yeast I; assay type: cell-based; conditions: 48 h, read-out: ED50 concentration, Yeast-I
average dicots = assay: herbicide screening: average dicots; conditions: in vivo
From the text: as §1

Alternaria brassicicola = assay: ED50 on fungi, mycelial growth on V-8 juice agar: Alternaria brassicicola; assay type: cell-based; conditions: Example 4, 72 hrs, read-out: ED50 concentration, AB
Puccinia recondita = assay: in vivo fungicide screen: wheat leaf rust (WLR); conditions: for % compared to control, WLR: 100 ppm, foliar spray before infection
[5] = test system: Helminthosporium carbonum; assay: ED50 on fungi, mycelial growth on V-8 juice agar: Helminthosporium carbonum; assay type: cell-based; conditions: Bipolaris zeicola, Example 3, 72 hrs, read-out: ED50 concentration, HC
Pyrenochaeta terrestris = assay: ED50 on fungi, mycelial growth on V-8 juice agar: Pyrenochaeta terrestris; assay type: cell-based; conditions: Setophoma terrestris, Example 5, 72 hrs, read-out: ED50 concentration, PT
southern corn rootworm = assay: insecticide activity: southern corn rootworm; assay type: in vivo; conditions: 150 to 600 ppm
mexican bean beetle = assay: insecticide activity: mexican bean beetle; assay type: in vivo; conditions: 150 to 600 ppm
two-spotted spider mite = assay: insecticide activity: two-spotted spider mite; assay type: in vivo; conditions: 150 to 600 ppm
[6] = test system: Agrobacterium tumefaciens; assay: ED50 on bacteria, liquid nutrient medium: Agrobacterium tumefaciens; assay type: cell-based; conditions: 48 h, Example 9, two days, read-out: ED50 concentration, AT
[7] = test system: Xanthomonas campestris pv. campestris; assay: ED50 on bacteria, liquid nutrient medium: X. campestris pv. campestris; assay type: cell-based; conditions: 48 h, Example 7, two days, read-out: ED50 concentration, X.C. pv. campestris
pigweed = assay: herbicide screening: pigweed; conditions: in vivo
From the text: as §1

johnson grass = assay: herbicide screening: johnson grass; conditions: in vivo
From the text: as §1

[8] = test system: Xanthomonas campestris pv. carotae; assay: ED50 on bacteria, liquid nutrient medium: X. campestris pv. carotae; assay type: cell-based; conditions: 48 h, read-out: ED50 concentration, X.C. pv. carotae
barnyard grass = assay: herbicide screening: barnyard grass; conditions: in vivo
From the text: as §1

wild oat = assay: herbicide screening: wild oat; conditions: in vivo
From the text: as §1

cockleburr = assay: herbicide screening: cocklebur; conditions: in vivo
From the text: as §1

smartweed = assay: herbicide screening: smartweed; conditions: in vivo
From the text: as §1

yellow nutsedge = assay: herbicide screening: yellow nutsedge; conditions: in vivo
From the text: as §1

morning glory = assay: herbicide screening: morning glory; conditions: in vivo
From the text: as §1

cockroaches = conditions: in vivo; cited from earlier work
flour beetles = conditions: in vivo; cited from earlier work
houseflies = conditions: in vivo; cited from earlier work
[9] = 100 ppm, foliar spray before infection

Compound: CC(C)(C)C(=O)C(Oc1ccc(Cl)cc1)n1cncn1 (stereo not drawn) [BAYLETON]
- activity preventing infection of wheat by Erysiphe graminis (Erysiphe graminis; in vivo): 100%
- toxicity to fish (fish): toxic to fish

Compound: CCCCNC(=O)n1c(NC(=O)OC)nc2ccccc21 [BENOMYL, methyl 1-(butylcarbamoyl)-2-benzimidazolecarbonate]
- activity preventing infection of wheat by Erysiphe graminis (Erysiphe graminis; in the range of 38-300 ppm): 100%
- fruit finish of apples (apples): apples do not express fine fruit finish
- toxicity to fish (fish): toxic to fish

Compound: C=CCc1cc(OC)c(O)c2c1OCO2 [Compound 4, 6-methoxy-2,3-methylenedioxy-4-allyl phenol]
- IC50 (Rhizobium japonicum): > 500 µg/mL
- insecticide activity, green peach aphid (green peach aphid): ineffective
- % compared to control, WPM (Erysiphe graminis): 75%
- herbicide effect, green foxtails (green foxtails): ineffective
- herbicide effect, average monocots (average monocots): ineffective
- herbicide effect against one or more of the listed weeds (weeds; 2 lbs/acre): ineffective
- % compared to control, CDM [1]: 0%
- herbicide effect, velvet leaf (velvet leaf): ineffective
- % compared to control, TLB (Phytophtora infestans; [9]): 0%
- herbicide effect, signal grass (signal grass): ineffective
- IC50 ([2]; Example 12, liquid medium, two days): > 500 µg/mL
- IC50 (Alternaria chrysanthemi): 10 µg/mL (≈ 48 µM)
- % compared to control, RB (Piricularia oryzae; [9]): 0%
- insecticide activity, southern root knot nematode [3]: ineffective
- IC50 (Cladosporium herbarum): 16.5 µg/mL (≈ 79.2 µM)
- effect on Xanthomonas campestris (Xanthomonas campestris): effective
- % compared to control, RSB (Pellicularia filamentosa): 0%
- insecticide activity, southern armyworm (southern armyworm): ineffective
- IC50 ([4]; Example 11, liquid medium, two days): > 500 µg/mL
- herbicide effect, average dicots (average dicots): ineffective
- IC50 (Alternaria brassicicola): 8 µg/mL (≈ 38.4 µM)
- % compared to control, WLR (Puccinia recondita): 0%
- IC50 [5]: 18 µg/mL (≈ 86.4 µM)
- IC50 (Pyrenochaeta terrestris): 10 µg/mL (≈ 48 µM)
- insecticide activity, southern corn rootworm (southern corn rootworm): ineffective
- insecticide activity, mexican bean beetle (mexican bean beetle): ineffective
- insecticide activity, two-spotted spider mite (two-spotted spider mite): ineffective
- IC50 [6]: > 200 µg/mL
- IC50 [7]: 10 µg/mL (≈ 48 µM)
- herbicide effect, pigweed (pigweed): ineffective

Compound: C=CCc1cc(OC)c(OC)c2c1OCO2 [Compound 5, 4,5-dimethoxy-2,3-methylenedioxy-1-allyl benzene]
- IC50 (Rhizobium japonicum): > 500 µg/mL
- herbicide effect, johnson grass (johnson grass): ineffective
- % compared to control, WPM (Erysiphe graminis): 95%
- herbicide effect, green foxtails (green foxtails): ineffective
- herbicide effect, average monocots (average monocots): ineffective
- herbicide effect against one or more of the listed weeds (weeds; 4 lbs/acre): ineffective
- % compared to control, CDM [1]: 0%
- effectiveness against cucumber downy mildew ([1]; in vivo): substantially ineffective
- herbicide effect, velvet leaf (velvet leaf): ineffective
- % compared to control, TLB (Phytophtora infestans; in vivo): 0%
- effectiveness against tomato leaf blight (Phytophtora infestans; in vivo): substantially ineffective
- IC50 [2]: > 500 µg/mL
- IC50 (Alternaria chrysanthemi): 10 µg/mL (≈ 45 µM)
- % compared to control, RB (Piricularia oryzae; in vivo): 0%
- effectiveness against rice blast (Piricularia oryzae; in vivo): substantially ineffective
- IC50 [8]: 10 µg/mL (≈ 45 µM)
- IC50 (Cladosporium herbarum): 16 µg/mL (≈ 72 µM)
- herbicide effect, barnyard grass (barnyard grass): ineffective
- herbicide effect, wild oat (wild oat): ineffective
- % compared to control, RSB (Pellicularia filamentosa): 0%
- effectiveness against rice sheath blight (Pellicularia filamentosa; in vivo): substantially ineffective
- IC50 [4]: > 500 µg/mL
- herbicide effect, average dicots (average dicots): ineffective
- IC50 (Alternaria brassicicola): 8 µg/mL (≈ 36 µM)
- % compared to control, WLR (Puccinia recondita): 0%
- effectiveness against wheat leaf rust (Puccinia recondita; in vivo): substantially ineffective
- IC50 [5]: 16 µg/mL (≈ 72 µM)
- IC50 (Pyrenochaeta terrestris): 10 µg/mL (≈ 45 µM)
- herbicide effect, cockleburr (cockleburr): ineffective
- herbicide effect, smartweed (smartweed): ineffective
- IC50 [6]: > 200 µg/mL
- IC50 [7]: 10 µg/mL (≈ 45 µM)
- herbicide effect, yellow nutsedge (yellow nutsedge): ineffective
- herbicide effect, pigweed (pigweed): ineffective
- herbicide effect, morning glory (morning glory): ineffective

Compound: CCOP(=O)(Sc1ccccc1)Sc1ccccc1 [EDIFENPHOS, O-ethyl-S,S-diphenyl-dithiophosphate]
- activity preventing infection of wheat by Erysiphe graminis (Erysiphe graminis; in the range of 75-300 ppm): 100%
- toxicity to fish (fish): toxic to fish

Compound: CC(C)OC(=O)C(C(=O)OC(C)C)=C1SCCS1 [FUJI-ONE, diissopropyl-1,3-dithiolau-2-ylidane malonate]
- activity preventing infection of wheat by Erysiphe graminis (Erysiphe graminis; at up to 300 ppm): 0%

Compound: C=CCOC1=NS(=O)(=O)c2ccccc21 [ORYZEMATE]
- activity preventing infection of wheat by Erysiphe graminis (Erysiphe graminis; at up to 300 ppm): 0%

Compound: CCCc1cc2c(c(OC)c1OC)OCO2 [propyl analog of dillapiole]
- synergic with pyrethrins against cockroaches (cockroaches): effective synergic
- synergic with pyrethrins against flour beetles (flour beetles): effective synergic
- synergic with pyrethrins against houseflies (houseflies): effective synergic

Compound: MANCOZEB
- activity preventing infection of wheat by Erysiphe graminis (Erysiphe graminis; at up to 300 ppm): 0%
